Reference: PubChem BioAssay AID2060905 (Molecular Pharmacology Branch, DTP, NCI, 2025)

Tested on: 282377-053-R-J1-PDC complex spheroid viability
Assay: Anticancer human tumor 282377-053-R-J1-PDC patient-derived colon adenocarcinoma cell line growth inhibition [RAS]
Settings: for IC50: curve of first compound; for viability, T/C: stronger effect = lower value; active = viability on the fitted dose curve at most 10% of control; inactive = the rest
Outline: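 Agents were tested in combination matrices in half-log decrements from a top concentration at or near clinical Cmax (10 microM if undetermined). Targets were multi-cell spheroids of tumour lines plus HUVEC and MSC stromal cells.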

[1] = second compound 0.000949 µM, first compound 0.000949 µM
[2] = second compound 0.000949 µM, first compound 0.003 µM
[3] = second compound 0.000949 µM, first compound 0.00949 µM
[4] = second compound 0.000949 µM, first compound 0.03 µM
[5] = second compound 0.000949 µM, first compound 0.0949 µM
[6] = second compound 0.000949 µM, first compound 0.3 µM
[7] = second compound 0.003 µM, first compound 0.000949 µM
[8] = second compound 0.003 µM, first compound 0.003 µM
[9] = second compound 0.003 µM, first compound 0.00949 µM
[10] = second compound 0.003 µM, first compound 0.03 µM
[11] = second compound 0.003 µM, first compound 0.0949 µM
[12] = second compound 0.003 µM, first compound 0.3 µM
[13] = second compound 0.00949 µM, first compound 0.000949 µM
[14] = second compound 0.00949 µM, first compound 0.003 µM
[15] = second compound 0.00949 µM, first compound 0.00949 µM
[16] = second compound 0.00949 µM, first compound 0.03 µM
[17] = second compound 0.00949 µM, first compound 0.0949 µM
[18] = second compound 0.00949 µM, first compound 0.3 µM
[19] = second compound 0.03 µM, first compound 0.000949 µM
[20] = second compound 0.03 µM, first compound 0.003 µM
[21] = second compound 0.03 µM, first compound 0.00949 µM
[22] = second compound 0.03 µM, first compound 0.03 µM
[23] = second compound 0.03 µM, first compound 0.0949 µM
[24] = second compound 0.03 µM, first compound 0.3 µM
[25] = second compound 0.0949 µM, first compound 0.000949 µM
[26] = second compound 0.0949 µM, first compound 0.003 µM
[27] = second compound 0.0949 µM, first compound 0.00949 µM
[28] = second compound 0.0949 µM, first compound 0.03 µM
[29] = second compound 0.0949 µM, first compound 0.0949 µM
[30] = second compound 0.0949 µM, first compound 0.3 µM
[31] = second compound 0.3 µM, first compound 0.000949 µM
[32] = second compound 0.3 µM, first compound 0.003 µM
[33] = second compound 0.3 µM, first compound 0.00949 µM
[34] = second compound 0.3 µM, first compound 0.03 µM
[35] = second compound 0.3 µM, first compound 0.0949 µM
[36] = second compound 0.3 µM, first compound 0.3 µM
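Also: spheroids exposed to agents for seven days before readout.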
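For viability, T/C in this document: luminescence viability as percent of DMSO vehicle control wells.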

C=CC(=O)N1CCN(c2nc(OCC3CCCN3C)nc3c(F)c(-c4nc(N)cc(C)c4C(F)(F)F)c(Cl)cc23)C(C)C1 (stereo unspecified) + CCn1c(-c2cccnc2C(C)OC)c2c3cc(ccc31)N1CCOC(CC(NC(=O)C(C(C)C)N(C)C(=O)C3(F)CCN(C(=O)C#CC(C)(C)N(C)C)CC3)C(=O)N3CCCC(N3)C(=O)OCC(C)(C)C2)C1
inactive: viability, T/C (second compound 0.000949 µM, first compound 0.00316 µM) 90.6% | viability, T/C (second compound 0.000949 µM, first compound 0.01 µM) 110% | viability, T/C (second compound 0.000949 µM, first compound 0.0316 µM) 109% | viability, T/C (second compound 0.000949 µM, first compound 0.1 µM) 92.1% | viability, T/C (second compound 0.000949 µM, first compound 0.316 µM) 98% | viability, T/C (second compound 0.000949 µM, first compound 1 µM) 87.1% | viability, T/C (second compound 0.003 µM, first compound 0.00316 µM) 105% | viability, T/C (second compound 0.003 µM, first compound 0.01 µM) 131% | viability, T/C (second compound 0.003 µM, first compound 0.0316 µM) 86.9% | viability, T/C (second compound 0.003 µM, first compound 0.1 µM) 101% | viability, T/C (second compound 0.003 µM, first compound 0.316 µM) 81.2% | viability, T/C (second compound 0.003 µM, first compound 1 µM) 85.3% | viability, T/C (second compound 0.00949 µM, first compound 0.00316 µM) 96.2% | viability, T/C (second compound 0.00949 µM, first compound 0.01 µM) 92.7% | viability, T/C (second compound 0.00949 µM, first compound 0.0316 µM) 83.6% | viability, T/C (second compound 0.00949 µM, first compound 0.1 µM) 88.7% | viability, T/C (second compound 0.00949 µM, first compound 0.316 µM) 81.5% | viability, T/C (second compound 0.00949 µM, first compound 1 µM) 82.8% | viability, T/C (second compound 0.03 µM, first compound 0.00316 µM) 92.9% | viability, T/C (second compound 0.03 µM, first compound 0.01 µM) 97.5% | viability, T/C (second compound 0.03 µM, first compound 0.0316 µM) 86.2% | viability, T/C (second compound 0.03 µM, first compound 0.1 µM) 112% | viability, T/C (second compound 0.03 µM, first compound 0.316 µM) 89.9% | viability, T/C (second compound 0.03 µM, first compound 1 µM) 93.8% | viability, T/C (second compound 0.0949 µM, first compound 0.00316 µM) 90.5% | viability, T/C (second compound 0.0949 µM, first compound 0.01 µM) 104% | viability, T/C (second compound 0.0949 µM, first compound 0.0316 µM) 115% | viability, T/C (second compound 0.0949 µM, first compound 0.1 µM) 109% | viability, T/C (second compound 0.0949 µM, first compound 0.316 µM) 109% | viability, T/C (second compound 0.0949 µM, first compound 1 µM) 96.3% | viability, T/C (second compound 0.3 µM, first compound 0.00316 µM) 90.1% | viability, T/C (second compound 0.3 µM, first compound 0.01 µM) 92.1% | viability, T/C (second compound 0.3 µM, first compound 0.0316 µM) 97.5% | viability, T/C (second compound 0.3 µM, first compound 0.1 µM) 93.3% | viability, T/C (second compound 0.3 µM, first compound 0.316 µM) 113% | viability, T/C (second compound 0.3 µM, first compound 1 µM) 98.2%
> 1000 nM: IC50 (second compound 0.000949 µM) | IC50 (second compound 0.003 µM) | IC50 (second compound 0.00949 µM) | IC50 (second compound 0.03 µM) | IC50 (second compound 0.0949 µM) | IC50 (second compound 0.3 µM)

CC1(C)CCC(Nc2ncc(C(F)(F)F)c(-c3c[nH]c4c(P(C)(C)=O)c(C#N)ccc34)n2)CN1 (stereo unspecified) + CCn1c(-c2cccnc2C(C)OC)c2c3cc(ccc31)N1CCOC(CC(NC(=O)C(C(C)C)N(C)C(=O)C3(F)CCN(C(=O)C#CC(C)(C)N(C)C)CC3)C(=O)N3CCCC(N3)C(=O)OCC(C)(C)C2)C1
inactive: viability, T/C [1] 83.9% | viability, T/C [2] 124% | viability, T/C [3] 115% | viability, T/C [4] 90% | viability, T/C [5] 104% | viability, T/C [6] 75.9% | viability, T/C [7] 94.1% | viability, T/C [8] 112% | viability, T/C [9] 140% | viability, T/C [10] 88.6% | viability, T/C [11] 89.5% | viability, T/C [12] 89.3% | viability, T/C [13] 102% | viability, T/C [14] 105% | viability, T/C [15] 134% | viability, T/C [16] 97% | viability, T/C [17] 80.8% | viability, T/C [18] 92.9% | viability, T/C [19] 89.3% | viability, T/C [20] 118% | viability, T/C [21] 98.2% | viability, T/C [22] 96.3% | viability, T/C [23] 91.2% | viability, T/C [24] 96.9% | viability, T/C [25] 84.5% | viability, T/C [26] 135% | viability, T/C [27] 131% | viability, T/C [28] 77% | viability, T/C [29] 75.1% | viability, T/C [30] 67.9% | viability, T/C [31] 92.6% | viability, T/C [32] 107% | viability, T/C [33] 110% | viability, T/C [34] 84.5% | viability, T/C [35] 56.9% | viability, T/C [36] 53.6%
> 300 nM: IC50 (second compound 0.000949 µM) | IC50 (second compound 0.003 µM) | IC50 (second compound 0.00949 µM) | IC50 (second compound 0.03 µM) | IC50 (second compound 0.0949 µM) | IC50 (second compound 0.3 µM)

CCc1c2c(nc3ccc(O)cc13)-c1cc3c(c(=O)n1C2)COC(=O)[C@]3(O)CC + CCn1c(-c2cccnc2C(C)OC)c2c3cc(ccc31)N1CCOC(CC(NC(=O)C(C(C)C)N(C)C(=O)C3(F)CCN(C(=O)C#CC(C)(C)N(C)C)CC3)C(=O)N3CCCC(N3)C(=O)OCC(C)(C)C2)C1
182 nM: IC50 (second compound 0.3 µM)
> 300 nM: IC50 (second compound 0.000949 µM) | IC50 (second compound 0.003 µM) | IC50 (second compound 0.00949 µM) | IC50 (second compound 0.03 µM) | IC50 (second compound 0.0949 µM)
inactive: viability, T/C [1] 133% | viability, T/C [2] 105% | viability, T/C [3] 161% | viability, T/C [4] 108% | viability, T/C [5] 95.5% | viability, T/C [6] 90.6% | viability, T/C [7] 111% | viability, T/C [8] 125% | viability, T/C [9] 131% | viability, T/C [10] 99.1% | viability, T/C [11] 122% | viability, T/C [12] 98.8% | viability, T/C [13] 129% | viability, T/C [14] 110% | viability, T/C [15] 142% | viability, T/C [16] 115% | viability, T/C [17] 98% | viability, T/C [18] 85.1% | viability, T/C [19] 95% | viability, T/C [20] 115% | viability, T/C [21] 146% | viability, T/C [22] 139% | viability, T/C [23] 110% | viability, T/C [24] 94.4% | viability, T/C [25] 119% | viability, T/C [26] 143% | viability, T/C [27] 163% | viability, T/C [28] 136% | viability, T/C [29] 110% | viability, T/C [30] 82.4% | viability, T/C [31] 96.7% | viability, T/C [32] 135% | viability, T/C [33] 149% | viability, T/C [34] 117% | viability, T/C [35] 69.8% | viability, T/C [36] 35%
